Experimental data taken from patent US10563272B2, “Compositions comprising Metarhizium fungi and use thereof as a pesticide” (Cotton Research and Development Corporation, priority 2015, dated 2020).

Legend:
[1] = system: predatory beetles; test: Rate trial on conventional cotton, Norwood 2012 (Example 10): predatory beetles; format: in vivo, Coleoptera (Coccinellidae, Melyridae); details: 3 and 6 Mar. 2012; fipronil 62.5 mL/ha; P<0.05
Procedure: This trial was conducted on commercial conventional cotton crops on a farm at Norwood (29° 28'S, 149° 50′E) near Moree, NSW, from 28 Feb. to 21 Mar. 2012. The cotton used for the trial was at the early squaring stage, when it was attractive to green mirids (Khan et al. 2004).
The efficacy of the following treatments against green mirids and predatory insects were evaluated: • 1. 250 mL/ha DAT 511 spore in oil (1×10^7 spores/ml); • 2. 500 mL/ha DAT 511 spore in oil (1×10^7 spores/ml); • 3. 1 L/ha DAT 511 spore in oil (1×10^7 spores/ml); • 4. 62.5 mL/ha of Fipronil; and • 5. Unsprayed (negative control).
(§1) The treatment plots were arranged in a randomized complete block design with six replicates per treatment. Each replicated plot measured 40 m wide (40 rows) and 90 m long.
Foliar application of each treatment was made on 28 Feb. (for both green mirids and beneficial insects) and 13 Mar. […]
Pre-treatment counts of adult and nymph green mirids, predatory beetles, predatory bugs, predatory lacewings and spiders were made by visual inspection of whole cotton plants. Both adults and nymphs of beneficial insects were counted. Plants were assessed in randomly selected one-metre lengths of row of each treatment replicate (i.e. 6 m per treatment). […] Data are expressed as numbers of green mirid adults and nymphs counted per metre per treatment.

[2] = system: green vegetable bugs (GVB); test: Rate trial on conventional cotton refuge crops, Undabri 2012 (Example 12): green vegetable bugs; format: in vivo, Nezara viridula; details: 14 DAT (P<0.01) and 21 DAT (P<0.05); DAT 511 500 mL/ha and 1 L/ha, fipronil
Procedure: (§2) This trial was conducted using commercial conventional cotton refuge crops at Undabri in Goondiwindi (28° 55'S, 150° 31′E) from 14 Feb. to 6 Mar. 2012.
(§3) The efficacy of the following treatments against green mirids, green vegetable bugs and predatory insects was assessed: • 1. 250 mL/ha DAT 511 spore in oil (1×10^7 spores/ml); • 2. 500 mL/ha DAT 511 spore in oil (1×10^7 spores/ml); • 3. 1 L/ha DAT 511 spore in oil (1×10^7 spores/ml); • 4. 62.5 mL/ha fipronil; and • 5. Unsprayed (negative control).
(§4) The plots were arranged in a randomized complete block design with three replicates per treatment. Each replicated plot measured 8 m (8 rows) wide and 250 m long.
(§5) Foliar applications of each treatment were made on 14 Feb. 2012 using a ground spray rig fitted with flat fan nozzles to achieve a droplet size of 200 μm. All insecticide formulations were water miscible. All treatments were applied using a spray volume of 100 L/ha. The untreated (negative control) plot was left unsprayed and the plot treated with synthetic insecticide received two applications similar to, and on the same date as, the plots treated with the fungus.
(§6) For each replicate, visual counts of adults and nymphs of green mirids, green vegetable bugs (GVB), apple dimpling bugs and predatory insects on whole cotton plants were made in a randomly selected 1 m length of row of cotton plants (i.e. 6 m per treatment). […]

[3] = system: predatory bugs; test: Rate trial on conventional cotton refuge crops, Undabri 2012 (Example 12): predatory bugs; format: in vivo, Hemiptera (Nabidae, Lygaeidae, Pentatomidae); details: DAT 511 500 mL and 1.0 L/ha (P<0.001 versus 250 mL/ha and unsprayed); fipronil 62.5 mL/ha
Procedure: as §2, §3, §4, §5, §6

[4] = system: predatory lacewings; test: Rate trial on conventional cotton refuge crops, Undabri 2012 (Example 12): predatory lacewings; format: in vivo, Chrysopa spp., Micromus tasmaniae; details: DAT 511 250 mL/ha, 500 mL/ha and 1.0 L/ha; fipronil 62.5 mL/ha
Procedure: as §2, §3, §4, §5, §6

[5] = system: predatory beetles; test: Bollgard II cotton, Auscott-Togo 2012-13, Field 77 (Experiment 1): predatory beetles; format: in vivo, Coleoptera (Coccinellidae, Melyridae); details: 62.5 mL/ha
Procedure: (§7) Two separate trials (Experiment 1 in Field 77; Experiment 2 in Field 63) were conducted in Bollgard II cotton crops on a commercial cotton farm at Auscott-Togo near Narrabri, New South Wales from 11 Feb. to 5 Mar. 2013 (Field 77) and 19 Feb. to 6 Mar. 2013 (Field 63). The cotton used for each of the trials was at the late squaring to pod setting and maturation stages which was fairly attractive to green mirids.
(§8) In both trials, the efficacy of the following treatments against green mirids and predatory insects was evaluated: • 1. 250 mL/ha DAT 511 spore in oil (1×10^7 spores/ml); • 2. 500 mL/ha DAT 511 spore in oil (1×10^7 spores/ml); • 3. 1 L/ha DAT 511 spore in oil (1×10^7 spores/ml); • 4. 62.5 mL/ha of fipronil; and • 5. Unsprayed (negative control).
as §1
(§9) Foliar application of each treatment was made on 28 Feb. (for both green mirids and beneficial insects) and 13 Mar. 2012 (for beneficial insects alone) using a ground spray rig fitted with flat fan nozzles to achieve a droplet size of 200 μm. The treatment was applied during the mornings when temperatures were between 20° C. and 28° C. The timing of treatment was based on the IPM Guidelines and recommendations by CottonLogic to use an economic threshold of 0.5 green mirids per metre (Deutscher and Wilson 1999; Khan et al. 2004).
(§10) Pre-treatment counts of green mirid adults and nymphs, predatory beetles, predatory bugs, predatory lacewings and spiders were made by visual inspection of whole cotton plants. Both adults and nymphs of beneficial insects were counted. Plants were assessed in randomly selected one-metre lengths of row of each replicate (i.e. 6 m per treatment). Post-treatment counts were made 3, 7, 14 and 21 days after treatment. Data are expressed as numbers of green mirid adults and nymphs counted per metre for each treatment.

[6] = system: spiders; test: Bollgard II cotton, Auscott-Togo 2012-13, Field 77 (Experiment 1): spiders; format: in vivo, Lycosa spp., Oxyopes spp., Salticidae spp., Araneus spp.; details: 62.5 mL/ha
Procedure: as §7, §8, §1, §9, §10

## N#Cc1nn(-c2c(Cl)cc(C(F)(F)F)cc2Cl)c(N)c1[S+]([O-])C(F)(F)F (centres unmarked) [fipronil]
[1]
  number of predatory beetles per metre versus unsprayed and DAT 511 treated plots: significantly lower
[2]
  green vegetable bugs per metre on unsprayed plots relative to treated plots: significantly higher
[3]
  effect on number of predatory bugs per metre: significantly lower
[4]
  effect on number of predatory lacewings per metre: significantly lower
[5]; 3 DAT
  No. predatory beetles per meter: 1.33 ± 0.33 a per meter
[5]; 7 DAT
  No. predatory beetles per meter: 1.33 ± 0.33 a per meter
[5]; 14 DAT
  No. predatory beetles per meter: 1.00 ± 0.58 a per meter
[5]; 21 DAT
  No. predatory beetles per meter: 1.33 ± 0.33 b per meter
[5]; pre-spray counts
  No. predatory beetles per meter: 3.68 ± 0.33 a per meter
[6]; 3 DAT
  No. spiders per meter: 5.00 ± 1.73 a per meter
[6]; 7 DAT
  No. spiders per meter: 5.33 ± 1.86 a per meter
[6]; 14 DAT
  No. spiders per meter: 9.33 ± 0.67a per meter
[6]; 21 DAT
  No. spiders per meter: 8.67 ± 0.88 a per meter
[6]; pre-spray counts
  No. spiders per meter: 11.67 ± 1.67a per meter
